In one series the test system is hSGLT2. The following applies: no reference given; read-out: IC50 against hSGLT2; cited from earlier work.
A short description of series [1]: Melanin binding capability. In kind it is in vitro ADME.
Series [2] can be described thus: Plasma PK after single ocular administration in rats. In kind it is in vivo. To be noted: male, Brown Norway, topical or ocular, 25 ug, rat plasma, single ocular 25 μg. The procedure:
(§1) We used 7-week-old male Brown Norway rats (Central Lab. Animal Inc., Seoul, Republic of Korea) weighing 140–180 g. The rats were acclimated for a minimum of 7 days. For the evaluation of plasma PKs after ocular administration, a single dose of 5 μL of DWRX2008 0.5% (25 μg of enavogliflozin) was topically applied on the left eye. One-year-old male Ridglan beagle dogs (JOHN Bio Co., Nantong, China) weightng 8–10 kg were chosen. The beagle dogs experienced a withdrawal period of over one month. For the evaluation of plasma PKs after ocular administration, a single dose of 20 μL of DWRX2008 0.5% (100 μg of enavogliflozin) was ocularly administered on the left eyes. In rats and beagle dogs, DWRX2008 was administered to the left eye for evaluation of safety and systemic absorption. Male New Zealand White rabbits (Samtako Biokorea, Osan, Republic of Korea) weighing 2.0–2.5 kg were used in PK studies after eye drop instillations. The rabbits were acclimated for 7 days. […]
(§2) A total of three rats were sampled 10 times at 0 (pre-dose), 0.08, 0.25, 0.5, 1, 2, 4, 8, 12 and 24 h post-dose. […] After centrifugation at 14,000 rpm for 5 min, 3 μL of sample was analyzed by LC-MS [24]. […] Finally, 3 μL of sample was analyzed by LC-MS [24]. […] Finally, 3 μL of sample was analyzed by LC-MS [24]. […]

The subject of a further series is hERG. Also noted: method as in earlier work. To be noted: ref Daewoong Therapeutics, DWRX2008-IB-01 Investigator’s brochure, data on file; cited from earlier work.
Series [3] in a line: Plasma PK after single ocular administration in beagle dogs. The series is classed as in vivo. To be noted: male, Ridglan beagle, topical or ocular, 100 ug, beagle dog plasma, single ocular 100 μg. As to the method:
as §1, §2

A short description of series [4]: Plasma and retinal concentration after single oral administration in rabbits. In kind it is in vivo, male New Zealand White rabbits.
Series [5] is described as follows: Plasma PK after single ocular administration in rabbits. The series is classed as in vivo. The following applies: male, New Zealand White, topical or ocular, 400 ug, rabbit plasma, single ocular 400 μg (both eye). As to the method:
as §1, §2

For series [6] the following is noted: no reference given; cited from earlier work.
The nature of series [7]: Retina/plasma drug concentration ratio in rats. The following applies: mean (range). The series is classed as in vivo.
For series [8] the following is noted: male, New Zealand White, rabbit, in vivo.
Protocol: (§3) We used 9-month-old male rabbits (Envigo, Denver, PA, USA) weighing 3.1–3.7 kg in the PK studies involving a single topical ocular administration of [^14C] enavogliflozin.
(§4) The appropriate quantity of radiolabeled and non-radiolabeled test formulation (if required) was combined with the vehicle to meet the dose level (~77 μCi/eye). […] A single volumetric dose of 30 μL was administered to each eye (600 μg/eye, 1200 μg/head).
(§5) Two animals were euthanized by Euthasol® administration into the marginal ear vein at each predetermined time point (0.5, 1, 2, 4, 8, 24, and 48 h) post-instillation. Subsequently, their heads were frozen in a hexane/dry-ice bath and embedded in a 5% carboxymethylcellulose matrix. The embedded heads were sectioned at 30 μm thickness with less than 20% variation.
(§6) The primary PK parameters for concentrations of enavogliflozin were explored using a noncompartmental method of Phoenix WinNonlin 8.3 (Certara, L.P., Princeton, NJ, USA). The Cmax and Tmax were directly accepted from observed data. The AUC0–t was calculated using the linear trapezoidal method based on the mean radioactivity concentration of both eyes for ocular PKs in rabbits and the linear-up/log-down trapezoidal method for plasma PKs in rats, beagle dogs, and rabbits.
Series [9] is described as follows: Ocular distribution and blood exposure of radioactivity by autoradiography after single ocular [14C] enavogliflozin (terminal sampling). To be noted: single ocular 600 μg/eye, rabbits.
Protocol: as §3, §4, §5, §6
Where [10] appears, read: left eye, median [min, max], n = 3.

The values below come from publication PMC10818312, “Ocular and Plasma Pharmacokinetics of Enavogliflozin Ophthalmic Solution in Preclinical Species” (Pharmaceuticals, 2024).

One may read the IC50 as the midpoint of a concentration-inhibition curve. The Tmax is the time at which the peak concentration occurs. What is called half-life is the time in which the quantity being followed falls by half. A higher half-life goes with slow loss.

Turning to `OC[C@H]1O[C@@H](c2cc(Cc3ccc(C4CC4)cc3)c(Cl)c3c2CCO3)[C@H](O)[C@@H](O)[C@@H]1O` [enavogliflozin], the results for the IC50 in the series on hSGLT2 and in the series with hERG were 0.43 nM and 44.9 µM, respectively. Besides, the melanin binding capability entry in [1] is given as “approximately 33%”. Besides, the time of peak concentration (Tmax) in series [2] (setting [10]) worked out at 4 h; in series [3] (setting [10]), 1 h; in series [4] (male, New Zealand White, 400 ug, rabbit plasma, single oral 400 μg, median [min, max], n = 6), 48 min; in [5] (median [min, max], n = 6), 30 min. Also, the results for the half-life in series [2] (mean ± SD (% CV)), in series [3] (mean ± SD (% CV)) and in [5] (mean ± SD (% CV)) were 324 min, 636 min and 216 min, respectively. In addition, the retinal enavogliflozin concentration result in [4] (rabbits, oral administration, same dose (400 μg)) is on record as “below the lower limit of quantification”. In series [6], the “partition coefficient [Log P]” value was 2.13. Besides, the results for the “mean retina/plasma (R/P) drug concentration ratio” value in [7] (1 h after administration), in series [7] (3 h after administration) and in series [7] (6 h after administration) were 3.3 (range: 0.6–6.6), 1.3 (range: 0.2–2.2) and 2.6 (range: 1.4–3.3), respectively. Further, in [8], the “time until which retinal concentration remained above the IC50 of SGLT2” value worked out at 24 h.

[^14C] enavogliflozin: in [9] (radioactivity), the “AUC0–t in whole blood as % of corresponding value in the plasma” value stood at 64.0% and the “Cmax in whole blood as % of corresponding value in the plasma” value worked out at 73.4%. In series [9], the “Radioactivity in the optic nerve” value was “barely detectable”.
